Assay results from article PMC4498294, “Tetrahydroisoquinolines affect the whole-cell phenotype of Mycobacterium tuberculosis by inhibiting the ATP-dependent MurE ligase” (Journal of Antimicrobial Chemotherapy, 2015).
Converted amounts (≈) assume the structure as drawn. Read-outs that look alike come from different tables or passages of the source. Marks after values point to notes of the source that are not given here.

Assays:
[1] = molecular target: MurE (Rv2158c) protein of M. tuberculosis H37Rv (Mycobacterium tuberculosis, UniProt P9WJL3); assay: Mtb-MurE HPLC inhibition assay; format: biochemical; settings: for IC50: HPLC assay, 37°C 30 min
M. tuberculosis H37Rv = assay: SPOTi growth inhibition assay, M. tuberculosis H37Rv; format: cell-based; settings: Mycobacterium tuberculosis, H37RV, SPOTi, read-out: MIC M. tuberculosis H37Rv
[2] = system: murine macrophage cell line RAW264.7; design: method as in Gupta and Bhakta.[27]; settings: ref Gupta and Bhakta.[27]; cited from earlier work
M. bovis BCG Pasteur = assay: microbe, parasite or virus in culture; format: cell-based; settings: for MIC: Mycobacterium tuberculosis variant bovis BCG, BCG
M. smegmatis mc^2155 = assay: SPOTi assay, M. smegmatis; format: cell-based, Mycobacterium smegmatis; settings: for MIC: Mycolicibacterium smegmatis, MC^2155
[3] = system: murine macrophage cell line RAW264.7; assay: Eukaryotic cell toxicity assay, RAW264.7; format: cell-based; settings: Mus musculus, read-out: GIC50 RAW264.7
M. aurum = assay: SPOTi assay, M. aurum; format: cell-based, Mycobacterium aurum; settings: for MIC: Mycolicibacterium aurum
E. coli K12 = assay: SPOTi assay, E. coli; format: cell-based, Escherichia coli; settings: Escherichia coli, K12, LB, 37°C overnight
P. putida = assay: SPOTi assay, P. putida; format: cell-based, Pseudomonas putida; settings: Pseudomonas putida, LB, 37°C overnight
R. equi RHA1 = assay: SPOTi assay, R. equi RHA1; format: cell-based, Rhodococcus equi; settings: Rhodococcus (subgen. Prescottella) equi, RHA1, LB, 30°C 48 h
CYP 2C9 = molecular target: T1, CYP 2C9 (Homo sapiens, UniProt P11712); assay: CYP450 inhibition assay, CYP 2C9; format: in vitro ADME; design: dose or concentration left out as unconfirmed; settings: CYP baculosomes with recombinant human CYP2C9, probe fluorogenic substrate (not named); human recombinant enzymes; read-out: Mean % inhibtion CYP 2C9
T1 construct: purchased; host or cells: baculosomes (insect-cell microsomes; own knowledge)
Description: (§1) The compounds originally dissolved in DMSO were added to PBS to give a resulting concentration of […]. CYP baculosomes containing cDNA for a single human P450 isozyme, the fluorogenic substrate and the NADPH were added to the test solution. The reaction was incubated at 37°C for at least 1 h. Fluorogenic substrates metabolized by CYP enzymes result in highly fluorescent products in aqueous solution. The inhibition of CYP prevents this metabolism, which corresponds to a decrease in the fluorescence signal. The fluorescence was measured on a plate reader.

CYP 2C19 = molecular target: T2, CYP 2C19 (Homo sapiens, UniProt P33261); assay: CYP450 inhibition assay, CYP 2C19; format: in vitro ADME; design: dose or concentration left out as unconfirmed; settings: CYP baculosomes with recombinant human CYP2C19, probe fluorogenic substrate (not named); human recombinant enzymes; read-out: Mean % inhibtion CYP 2C19
T2 construct: purchased; host or cells: baculosomes (insect-cell microsomes; own knowledge)
Description: as §1

CYP 2D6 = molecular target: T3, CYP 2D6 (Homo sapiens, UniProt P10635); assay: CYP450 inhibition assay, CYP 2D6; format: in vitro ADME; design: dose or concentration left out as unconfirmed; settings: CYP baculosomes with recombinant human CYP2D6, probe fluorogenic substrate (not named); human recombinant enzymes; read-out: Mean % inhibtion CYP 2D6
T3 construct: purchased; host or cells: baculosomes (insect-cell microsomes; own knowledge)
Description: as §1

CYP 3A4 = molecular target: T4, CYP 3A4 (Homo sapiens, UniProt P08684); assay: CYP450 inhibition assay, CYP 3A4; format: in vitro ADME; design: dose or concentration left out as unconfirmed; settings: CYP baculosomes with recombinant human CYP3A4, probe fluorogenic substrate (not named); human recombinant enzymes; read-out: Mean % inhibtion CYP 3A4
T4 construct: purchased; host or cells: baculosomes (insect-cell microsomes; own knowledge)
Description: as §1

CYP 1A2 = molecular target: T5, CYP 1A2 (Homo sapiens, UniProt P05177); assay: CYP450 inhibition assay, CYP 1A2; format: in vitro ADME; design: dose or concentration left out as unconfirmed; settings: CYP baculosomes with recombinant human CYP1A2, probe fluorogenic substrate (not named); human recombinant enzymes; read-out: Mean % inhibtion CYP 1A2
T5 construct: purchased; host or cells: baculosomes (insect-cell microsomes; own knowledge)
T5 sequence (P05177 1-516): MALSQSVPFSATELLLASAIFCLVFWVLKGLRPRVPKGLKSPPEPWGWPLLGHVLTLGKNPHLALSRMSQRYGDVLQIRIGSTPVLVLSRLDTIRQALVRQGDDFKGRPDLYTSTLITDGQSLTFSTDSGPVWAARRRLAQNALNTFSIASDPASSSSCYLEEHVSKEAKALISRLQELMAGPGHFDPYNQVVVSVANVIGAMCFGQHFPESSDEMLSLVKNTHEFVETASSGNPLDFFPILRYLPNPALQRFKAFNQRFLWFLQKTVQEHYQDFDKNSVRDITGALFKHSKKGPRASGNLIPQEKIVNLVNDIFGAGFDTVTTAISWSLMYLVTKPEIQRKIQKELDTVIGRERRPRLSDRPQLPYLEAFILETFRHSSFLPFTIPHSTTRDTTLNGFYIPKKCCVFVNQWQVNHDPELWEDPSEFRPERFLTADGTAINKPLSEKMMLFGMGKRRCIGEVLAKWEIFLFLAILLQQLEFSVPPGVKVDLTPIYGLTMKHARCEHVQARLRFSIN
Description: as §1

[4] = 336 h, read-out: MIC M. bovis BCG, SPOTi, 2 weeks at 37°C
[5] = read-out: MIC M. bovis BCG, SPOTi, value in square brackets
[6] = RAW264.7, value in square brackets
[7] = murine macrophage cell line RAW264.7

MurE (Rv2158c) protein of M. tuberculosis H37Rv, sequence (P9WJL3 whole entry, looked up): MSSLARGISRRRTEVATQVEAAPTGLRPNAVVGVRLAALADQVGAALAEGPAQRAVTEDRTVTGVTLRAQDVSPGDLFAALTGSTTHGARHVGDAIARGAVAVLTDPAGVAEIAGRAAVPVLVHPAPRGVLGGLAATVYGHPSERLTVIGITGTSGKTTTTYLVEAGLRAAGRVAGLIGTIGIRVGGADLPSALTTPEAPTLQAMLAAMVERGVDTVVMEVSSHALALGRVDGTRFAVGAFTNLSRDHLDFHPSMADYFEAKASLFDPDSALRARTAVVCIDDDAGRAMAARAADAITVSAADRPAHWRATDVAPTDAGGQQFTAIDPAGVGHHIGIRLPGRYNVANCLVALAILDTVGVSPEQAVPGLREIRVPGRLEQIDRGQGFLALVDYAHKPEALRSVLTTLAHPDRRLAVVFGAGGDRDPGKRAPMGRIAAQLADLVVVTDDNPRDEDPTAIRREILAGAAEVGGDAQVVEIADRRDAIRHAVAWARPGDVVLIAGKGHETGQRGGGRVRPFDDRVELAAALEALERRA
T2 sequence (P33261 whole entry): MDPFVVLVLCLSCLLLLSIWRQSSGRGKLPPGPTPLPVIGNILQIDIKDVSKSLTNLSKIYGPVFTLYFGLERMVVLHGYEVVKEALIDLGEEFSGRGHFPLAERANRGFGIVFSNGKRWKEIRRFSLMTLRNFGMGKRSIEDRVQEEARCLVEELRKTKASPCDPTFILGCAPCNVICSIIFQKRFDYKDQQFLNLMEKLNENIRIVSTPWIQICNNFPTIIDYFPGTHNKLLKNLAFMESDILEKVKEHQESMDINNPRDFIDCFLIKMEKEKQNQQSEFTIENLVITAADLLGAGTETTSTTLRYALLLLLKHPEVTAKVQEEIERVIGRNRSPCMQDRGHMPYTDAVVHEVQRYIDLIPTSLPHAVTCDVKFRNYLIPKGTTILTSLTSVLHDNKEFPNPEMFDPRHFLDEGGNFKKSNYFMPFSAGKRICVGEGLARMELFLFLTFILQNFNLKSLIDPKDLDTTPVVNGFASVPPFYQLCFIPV
T4 sequence (P08684 whole entry): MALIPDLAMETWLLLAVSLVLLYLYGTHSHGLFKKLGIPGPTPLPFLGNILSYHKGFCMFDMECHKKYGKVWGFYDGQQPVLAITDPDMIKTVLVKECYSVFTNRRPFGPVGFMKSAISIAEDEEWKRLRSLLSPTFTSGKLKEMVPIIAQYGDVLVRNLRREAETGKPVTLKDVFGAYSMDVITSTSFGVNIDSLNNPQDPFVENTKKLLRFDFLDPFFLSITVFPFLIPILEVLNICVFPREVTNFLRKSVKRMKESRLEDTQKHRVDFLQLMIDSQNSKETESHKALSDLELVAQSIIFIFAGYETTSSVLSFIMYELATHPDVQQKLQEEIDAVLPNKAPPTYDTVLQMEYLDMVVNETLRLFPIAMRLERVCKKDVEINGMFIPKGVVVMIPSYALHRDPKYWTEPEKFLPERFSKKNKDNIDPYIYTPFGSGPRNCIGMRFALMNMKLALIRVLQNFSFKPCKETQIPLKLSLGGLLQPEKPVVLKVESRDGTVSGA
T1 sequence (P11712 whole entry): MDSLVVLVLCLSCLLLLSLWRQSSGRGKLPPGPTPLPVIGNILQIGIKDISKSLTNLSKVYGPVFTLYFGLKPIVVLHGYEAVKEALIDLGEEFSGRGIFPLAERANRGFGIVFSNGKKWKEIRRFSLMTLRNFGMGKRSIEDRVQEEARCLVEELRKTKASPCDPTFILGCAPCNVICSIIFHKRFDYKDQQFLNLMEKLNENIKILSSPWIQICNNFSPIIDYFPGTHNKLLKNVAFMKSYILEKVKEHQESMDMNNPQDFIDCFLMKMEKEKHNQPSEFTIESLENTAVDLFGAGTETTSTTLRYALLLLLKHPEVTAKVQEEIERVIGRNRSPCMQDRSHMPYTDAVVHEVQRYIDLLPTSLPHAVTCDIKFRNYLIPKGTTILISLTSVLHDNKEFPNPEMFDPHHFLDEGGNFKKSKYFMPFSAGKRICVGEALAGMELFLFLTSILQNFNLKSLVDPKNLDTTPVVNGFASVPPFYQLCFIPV
T3 sequence (P10635 whole entry): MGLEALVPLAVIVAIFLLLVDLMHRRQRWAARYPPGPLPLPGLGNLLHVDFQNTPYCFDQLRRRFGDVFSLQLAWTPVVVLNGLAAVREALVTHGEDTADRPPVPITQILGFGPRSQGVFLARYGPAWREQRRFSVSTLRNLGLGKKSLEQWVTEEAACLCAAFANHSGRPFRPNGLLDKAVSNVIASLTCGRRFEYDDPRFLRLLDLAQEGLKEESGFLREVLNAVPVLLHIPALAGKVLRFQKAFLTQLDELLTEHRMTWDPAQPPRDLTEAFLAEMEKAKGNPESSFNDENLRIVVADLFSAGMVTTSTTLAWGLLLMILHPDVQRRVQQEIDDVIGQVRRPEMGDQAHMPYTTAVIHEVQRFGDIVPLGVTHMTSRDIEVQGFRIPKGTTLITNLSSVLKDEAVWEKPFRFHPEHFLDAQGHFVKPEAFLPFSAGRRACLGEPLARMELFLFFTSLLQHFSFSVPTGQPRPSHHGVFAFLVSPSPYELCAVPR

SMILES | IC50 [1] [µM] | MIC (M. tuberculosis H37Rv; 336 h, 2 weeks at 37°C) [µg/mL] | MIC (M. tuberculosis H37Rv; value in square brackets) [µM] | MIC (M. bovis BCG Pasteur; [4]) [µg/mL] | MIC (M. bovis BCG Pasteur; [5]) [µM] | MIC (M. smegmatis mc^2155) [µg/mL] | IC50 [3, 6] [µM] | IC50 [3, 7] [µg/mL] | MIC (M. aurum) [µg/mL] | MIC (E. coli K12) [µg/mL] | MIC (P. putida) [µg/mL] | MIC (R. equi RHA1) [µg/mL] | also measured
NNC(=O)c1ccncc1 [Isoniazid, reference compound] | > 1000 | 0.1 | 0.73 | 0.1 | 0.73 | – | – | – | – | – | – | – | Mtb-MurE inhibitory effect ([1]; negative control, any of the concentrations examined): no inhibitory effect; GIC50 RAW264.7 [2]: 3000^a mg/L
COc1ccc(Cl)c2c1C(Cc1ccc3c(c1)OCO3)NCC2 (stereo not drawn) [Compound 36] | – | 60 | 181 | 40 | 121 | 60 (≈ 181 µM) | 124 | 41 | 60 (≈ 181 µM) | > 100 | > 100 | > 100 | –
Oc1cc2c(cc1O)C(Cc1ccc3c(c1)OCO3)NCC2 (stereo not drawn) [Compound 20] | 237 | – | – | > 60 | 334 | > 100 | 602 | 190 | > 100 | > 100 | > 100 | > 100 | MIC M. smegmatis mc^2155 (M. smegmatis mc^2155): >100 µg/mL; MIC M. aurum (M. aurum): >100 µg/mL; MIC M. bovis BCG (M. bovis BCG Pasteur; SPOTi, 2 weeks at 37°C): 100 µg/mL (≈ 334 µM)
O=c1cc(-c2ccccc2)oc2c1ccc1ccccc12 [α-naphthoflavone, reference compound] | – | – | – | – | – | – | – | – | – | – | – | – | inhibition (CYP 2C9): 101%; inhibition (CYP 2C19): 100%; inhibition (CYP 2D6): 99.1%; inhibition (CYP 3A4): 101%; inhibition (CYP 1A2): 100%
